Entries after “also recorded” stand apart in the source; their conditions may differ. Where two headings read alike, the source gives them in different places.
Experiment: Solubility assessment of Sample 1 (majorly Form 1) in 24 solvent systems
Format: physicochemical
Conditions: for solubility: thermodynamic from solid
Method: Solubility assessment was carried out on the Sample 1 of RAD1901-2HCl (majorly Form 1 shown by XRPD) in 24 solvent systems in HPLC vials (sample IDs: A1 to A24). RAD1901-2HCl (25 mg) was treated with increasing volumes of solvent until the material fully dissolved or until a maximum of 60 vol had been used (Table 13).
After each addition of solvent, the system was stirred for 5 to 10 minutes at 25° C., then shaken at 50° C. for 5 to 10 minutes, and observations made. Samples were allowed to stand at room temperature for 5 min before the addition of a new aliquot of solvent. After the assessment was completed, the suspensions obtained were matured (maturation) and the clear solutions were cooled (cooling) and slowly evaporated (evaporation) as described below. All solids recovered from maturation, cooling and evaporation experiments were analyzed by high resolution XRPD.

solubility (acetonitrile, 50 °C, organic solvent or mixture, Acetonitrile, sample ID A19, read-out: Solubility assessment 10 vol.): < 100 mg/mL
solubility (acetonitrile, 50 °C, organic solvent or mixture, Acetonitrile, sample ID A19, read-out: Solubility assessment 20 vol.): < 50 mg/mL
solubility (acetonitrile, 50 °C, organic solvent or mixture, Acetonitrile, sample ID A19, read-out: Solubility assessment 40 vol.): < 25 mg/mL
solubility (acetonitrile, 50 °C, organic solvent or mixture, Acetonitrile, sample ID A19, read-out: Solubility assessment 60 vol.): < 16.7 mg/mL
solubility (dichloromethane, 50 °C, organic solvent or mixture, Dichloromethane, sample ID A18, read-out: Solubility assessment 10 vol.): < 100 mg/mL
solubility (dichloromethane, 50 °C, organic solvent or mixture, Dichloromethane, sample ID A18, read-out: Solubility assessment 20 vol.): < 50 mg/mL
solubility (dichloromethane, 50 °C, organic solvent or mixture, Dichloromethane, sample ID A18, read-out: Solubility assessment 40 vol.): < 25 mg/mL
solubility (dichloromethane, organic solvent or mixture, Dichloromethane, sample ID A18, read-out: Solubility assessment 60 vol.): < 16.7 mg/mL
solubility (dimethyl sulfoxide, 50 °C, organic solvent or mixture, Dimethyl sulfoxide, sample ID A11, read-out: Solubility assessment 10 vol.): > 100 mg/mL
solubility (ethanol, 50 °C, organic solvent or mixture, Ethanol, sample ID A10, read-out: Solubility assessment 10 vol.): < 100 mg/mL
solubility (ethanol, 50 °C, organic solvent or mixture, Ethanol, sample ID A10, read-out: Solubility assessment 20 vol.): < 50 mg/mL
solubility (ethanol, 50 °C, organic solvent or mixture, Ethanol, sample ID A10, read-out: Solubility assessment 40 vol.): < 25 mg/mL
solubility (ethanol, organic solvent or mixture, Ethanol, sample ID A10, read-out: Solubility assessment 60 vol.): < 16.7 mg/mL
solubility (ethyl acetate, 50 °C, organic solvent or mixture, Ethyl acetate, sample ID A3, read-out: Solubility assessment 10 vol.): < 100 mg/mL
solubility (ethyl acetate, 50 °C, organic solvent or mixture, Ethyl acetate, sample ID A3, read-out: Solubility assessment 20 vol.): < 50 mg/mL
solubility (ethyl acetate, 50 °C, organic solvent or mixture, Ethyl acetate, sample ID A3, read-out: Solubility assessment 40 vol.): < 25 mg/mL
solubility (ethyl acetate, organic solvent or mixture, Ethyl acetate, sample ID A3, read-out: Solubility assessment 60 vol.): < 16.7 mg/mL
solubility (isopropyl acetate, 50 °C, organic solvent or mixture, Isopropyl acetate, sample ID A4, read-out: Solubility assessment 10 vol.): < 100 mg/mL
solubility (isopropyl acetate, 50 °C, organic solvent or mixture, Isopropyl acetate, sample ID A4, read-out: Solubility assessment 20 vol.): < 50 mg/mL
solubility (isopropyl acetate, 50 °C, organic solvent or mixture, Isopropyl acetate, sample ID A4, read-out: Solubility assessment 40 vol.): < 25 mg/mL
solubility (isopropyl acetate, organic solvent or mixture, Isopropyl acetate, sample ID A4, read-out: Solubility assessment 60 vol.): < 16.7 mg/mL
solubility (methanol, 50 °C, organic solvent or mixture, Methanol, sample ID A20, read-out: Solubility assessment 10 vol.): 50 to 100 mg/mL
solubility (methanol, 50 °C, organic solvent or mixture, Methanol, sample ID A20, read-out: Solubility assessment 20 vol.): 50 to 100 mg/mL
solubility (n-heptane, 50 °C, organic solvent or mixture, n-Heptane, sample ID A1, read-out: Solubility assessment 10 vol.): < 100 mg/mL
solubility (n-heptane, 50 °C, organic solvent or mixture, n-Heptane, sample ID A1, read-out: Solubility assessment 20 vol.): < 50 mg/mL
solubility (n-heptane, 50 °C, organic solvent or mixture, n-Heptane, sample ID A1, read-out: Solubility assessment 40 vol.): < 25 mg/mL
solubility (n-heptane, organic solvent or mixture, n-Heptane, sample ID A1, read-out: Solubility assessment 60 vol.): < 16.7 mg/mL
solubility (nitromethane, 50 °C, organic solvent or mixture, Nitromethane, sample ID A21, read-out: Solubility assessment 10 vol.): < 100 mg/mL
solubility (nitromethane, 50 °C, organic solvent or mixture, Nitromethane, sample ID A21, read-out: Solubility assessment 20 vol.): < 50 mg/mL
solubility (nitromethane, 50 °C, organic solvent or mixture, Nitromethane, sample ID A21, read-out: Solubility assessment 40 vol.): < 25 mg/mL
solubility (nitromethane, organic solvent or mixture, Nitromethane, sample ID A21, read-out: Solubility assessment 60 vol.): < 16.7 mg/mL
solubility (propyl acetate, 50 °C, organic solvent or mixture, Propyl acetate, sample ID A2, read-out: Solubility assessment 10 vol.): < 100 mg/mL
solubility (propyl acetate, 50 °C, organic solvent or mixture, Propyl acetate, sample ID A2, read-out: Solubility assessment 20 vol.): < 50 mg/mL
solubility (propyl acetate, 50 °C, organic solvent or mixture, Propyl acetate, sample ID A2, read-out: Solubility assessment 40 vol.): < 25 mg/mL
solubility (propyl acetate, organic solvent or mixture, Propyl acetate, sample ID A2, read-out: Solubility assessment 60 vol.): < 16.7 mg/mL
solubility (tetrahydrofuran, 50 °C, organic solvent or mixture, Tetrahydrofuran, sample ID A17, read-out: Solubility assessment 10 vol.): < 100 mg/mL
solubility (tetrahydrofuran, 50 °C, organic solvent or mixture, Tetrahydrofuran, sample ID A17, read-out: Solubility assessment 20 vol.): < 50 mg/mL
solubility (tetrahydrofuran, 50 °C, organic solvent or mixture, Tetrahydrofuran, sample ID A17, read-out: Solubility assessment 40 vol.): < 25 mg/mL
solubility (tetrahydrofuran, organic solvent or mixture, Tetrahydrofuran, sample ID A17, read-out: Solubility assessment 60 vol.): < 16.7 mg/mL
solubility (toluene, 50 °C, organic solvent or mixture, Toluene, sample ID A15, read-out: Solubility assessment 10 vol.): < 100 mg/mL
solubility (toluene, 50 °C, organic solvent or mixture, Toluene, sample ID A15, read-out: Solubility assessment 20 vol.): < 50 mg/mL
solubility (toluene, 50 °C, organic solvent or mixture, Toluene, sample ID A15, read-out: Solubility assessment 40 vol.): < 25 mg/mL
solubility (toluene, organic solvent or mixture, Toluene, sample ID A15, read-out: Solubility assessment 60 vol.): < 16.7 mg/mL
solubility (water, 50 °C, water, Water, sample ID A12, read-out: Solubility assessment 10 vol.): 50 to 100 mg/mL
solubility (water, 50 °C, water, Water, sample ID A12, read-out: Solubility assessment 20 vol.): 50 to 100 mg/mL
Compound: CCNCCc1ccc(CN(CC)c2cc(OC)ccc2[C@@H]2CCc3cc(O)ccc3C2)cc1.Cl.Cl [Sample 1]
Solubility in water (water): highly soluble; also recorded: high solubility
